Laboratory results: PMC7996082, “The translocator protein ligands as mitochondrial functional modulators for the potential anti-Alzheimer agents” (Journal of Enzyme Inhibition and Medicinal Chemistry, 2021)

Experiments:
[1] = system: HT22 cells treated with Aβ; experiment: Cellular ROS assay (DCFDA): inhibition of Aβ-induced ROS generation; type: cell-based, mouse; conditions: Mus musculus, HT-22, 5 μM compound
Method: Among 56 compounds, 23 compounds were selected and further tested for the luciferase-based ATP assay. […] Thus, we chose these two compounds and further evaluated their biological activity by measuring cell viability and reactive oxygen species (ROS) production. The effects on cell viability of each compound under Aβ-induced cytotoxicity were determined by measuring the metabolic activity of NAD(P)H-dependent cellular oxidoreductases using the 3–(4,5-dimethylthiazol-2-yl)-2,5-diphenyl-tetrazolium bromide (MTT) dye. To measure cellular ROS levels, we used a fluorescence indicator, 2′,7′-dichlorofluorescein diacetate (DCFDA), and calculated the percent inhibition of ROS generation by applying the same method used for MTT assays. Compound 7 inhibited Aβ-induced ROS generation (97% at 5 µM) almost to the level of the untreated control (Table 1). […] On the basis of the in vitro activity, we selected compound 7 as the best hit from the initial screening library.

[2] = system: transgenic AD model mice (APPswe/PSEN1dE9); experiment: Y-maze spontaneous alternation test in transgenic AD model mice; type: in vivo, mouse; conditions: Tg APPswe/PSEN1dE9 mice, 30 mg/kg daily, 1 month, PO
[3] = system: transgenic AD model mice (APPswe/PSEN1dE9); experiment: Contextual fear conditioning test in transgenic AD model mice; type: in vivo, mouse; conditions: Tg AD model mice, 30 mg/kg daily, 1 month, PO
Method: The acute AD mice model was prepared by administration of Aβ1-42 solution (10% DMSO/90% PBS) to male ICR mice (6 weeks old, 30 − 33 g) via intracerebroventricular (ICV) injection (Aβ1-42 dose: 500 pmol/mouse) as described previously. The wild type mice (B6C3F1) and double APP/PS1 transgenic mice (Tg AD mice model; APPswe/PSEN1dE9) were purchased from Jackson Laboratory (Bar Harbour, ME, USA). The Tg AD model mice were 11 months old at the beginning of the behaviour test, and were housed for 1 month in a room under controlled temperature and fed ad libitum. The behaviour tests were conducted during daytime in air-controlled and soundproof experiment room. The animal experiments were abided by the guidelines of the Institutional Animal Care and Use Committee of Korea Institute of Science and Technology.
To the Tg mice of the AD model (n = 7 per group), each test compound (30 mg/kg) was orally administrated daily for 1 month. […] Freezing response was measured by the fear conditioning system without application of CS or US.
In addition, we assessed recovery effects of compound 7 by performing contextual fear conditioning tests.[40] Healthy mice show higher number of total freezing, which is an index of fear learning and memory of rodents; therefore, the number of total freezing responses under fear-relevant stimuli was measured with the compound-treated Tg AD model mice. […]

CCOc1ccc(-n2c(SCC(=O)Nc3ccc(OC)c(OC)c3)nc3sc4c(c3c2=O)CCN(C(C)=O)C4)cc1 [Compound 7]
inhibition at 5 µM [1]: 97%
Recovery of Y-maze spontaneous alternations [2]: 50%
Contextual fear conditioning: percent recovery of freezing [3]: 62%
